{"source": "patent US11952611B2", "about": "“Methods and systems for detection of antibiotic resistance” (Laboratory Corporation of America Holdings, priority 2017, dated 2024)", "key": {"[1]": {"tested_on": "MRSA", "test": "Recombinant phage luciferase assay, oxacillin vs cefoxitin (Table 1), MRSA strains", "assay_type": "cell-based, Staphylococcus aureus", "protocol": "(§1) Bacterial strains were serially diluted to approximately 1×10^3 CFU/mL and transferred to a 96-well plate at 135 μL per well. 15 μL of oxacillin or cefoxitin were added to the wells to reach a final concentration of 1.0 μg/mL or 2.0 μg/mL of oxicillin or 2.0 μg/mL, 4.0 μg/mL, 8.0 μg/mL, or 10.0 μg/mL of cefoxitin. The plate was then sealed and incubated at 37° C. for 2 hours. 10 μL of recombinant phage (1.6×10^8 pfu/mL) was added to each well. The plate was then re-sealed and incubated at 37° C. for 2 hours. A master mix was made containing 15 μL 5× lysis buffer, 50 μL luciferase assay buffer, and 1 μL luciferase substrate per well. 65 μL of master mix was added to each well. Luminescence from the reactions was read on a GLOMAX® Navigator and relative luminal units (RLU) for each reaction were analyzed. RLU values three times greater than an established background RLU level for LB (>750 RLU) were considered positive. The results, shown in Table 1, indicate that the recombinant phage are capable of detecting the tested bacterial strains."}, "[2]": {"tested_on": "MSSA", "test": "Recombinant phage luciferase assay, oxacillin vs cefoxitin (Table 1), MSSA strains", "assay_type": "cell-based, Staphylococcus aureus", "protocol": "as §1"}, "[3]": {"tested_on": "E. coli O157:H7", "assay_type": "cell-based", "conditions": "for signal reduction as compared to controls: 30 min antibiotic then 120 min phage"}, "[4]": {"conditions": "strain AR0463 MRSA, detected CFU 419"}, "[5]": {"conditions": "strain AR0465 MRSA, detected CFU 111"}, "[6]": {"conditions": "strain AR0472 MRSA, detected CFU 190"}, "[7]": {"conditions": "strain AR0476 MRSA, detected CFU 194"}, "[8]": {"conditions": "strain AR0481 MRSA, detected CFU 43"}, "[9]": {"conditions": "strain BAA-1720 MRSA, detected CFU 201"}, "[10]": {"conditions": "strain 12600 MSSA, detected CFU 389"}, "[11]": {"conditions": "strain AR0484 MSSA, detected CFU 153"}, "[12]": {"conditions": "strain AR0488 MSSA, detected CFU 285"}, "[13]": {"conditions": "strain AR0491 MSSA, detected CFU 300"}}, "note": "Like-named read-outs stand apart in the source and are kept apart here."}
{"smiles": "Cc1onc(-c2ccccc2)c1C(=O)N[C@@H]1C(=O)N2[C@@H]1SC(C)(C)[C@@H]2C(=O)O", "note": "[Oxacillin, oxacillin]", "values": [{"measurement": "detection after incubation with oxacillin", "setting": "[1]; several MRSA strains", "result": "no detection"}, {"measurement": "Oxacillin (RLU) 1 ug/mL", "setting": "[1]; [4]", "result": 426, "unit": "RLU"}, {"measurement": "Oxacillin (RLU) 2 ug/mL", "setting": "[1]; [4]", "result": 353, "unit": "RLU"}, {"measurement": "Oxacillin (RLU) 1 ug/mL", "setting": "[1]; [5]", "result": 4944, "unit": "RLU"}, {"measurement": "Oxacillin (RLU) 2 ug/mL", "setting": "[1]; [5]", "result": 4965, "unit": "RLU"}, {"measurement": "Oxacillin (RLU) 1 ug/mL", "setting": "[1]; [6]", "result": 348, "unit": "RLU"}, {"measurement": "Oxacillin (RLU) 2 ug/mL", "setting": "[1]; [6]", "result": 281, "unit": "RLU"}, {"measurement": "Oxacillin (RLU) 1 ug/mL", "setting": "[1]; [7]", "result": 553, "unit": "RLU"}, {"measurement": "Oxacillin (RLU) 2 ug/mL", "setting": "[1]; [7]", "result": 212, "unit": "RLU"}, {"measurement": "Oxacillin (RLU) 1 ug/mL", "setting": "[1]; [8]", "result": 467, "unit": "RLU"}, {"measurement": "Oxacillin (RLU) 2 ug/mL", "setting": "[1]; [8]", "result": 268, "unit": "RLU"}, {"measurement": "Oxacillin (RLU) 1 ug/mL", "setting": "[1]; [9]", "result": 23810, "unit": "RLU"}, {"measurement": "Oxacillin (RLU) 2 ug/mL", "setting": "[1]; [9]", "result": 22560, "unit": "RLU"}, {"measurement": "detection after incubation with oxacillin", "setting": "[2]; several MSSA strains", "result": "no detection"}, {"measurement": "Oxacillin (RLU) 1 ug/mL", "setting": "[2]; [10]", "result": 1459, "unit": "RLU"}, {"measurement": "Oxacillin (RLU) 2 ug/mL", "setting": "[2]; [10]", "result": 697, "unit": "RLU"}, {"measurement": "Oxacillin (RLU) 1 ug/mL", "setting": "[2]; [11]", "result": 268, "unit": "RLU"}, {"measurement": "Oxacillin (RLU) 2 ug/mL", "setting": "[2]; [11]", "result": 219, "unit": "RLU"}, {"measurement": "Oxacillin (RLU) 1 ug/mL", "setting": "[2]; [12]", "result": 228, "unit": "RLU"}, {"measurement": "Oxacillin (RLU) 2 ug/mL", "setting": "[2]; [12]", "result": 198, "unit": "RLU"}, {"measurement": "Oxacillin (RLU) 1 ug/mL", "setting": "[2]; [13]", "result": 245, "unit": "RLU"}, {"measurement": "Oxacillin (RLU) 2 ug/mL", "setting": "[2]; [13]", "result": 221, "unit": "RLU"}]}
{"smiles": "CN[C@H](CC(C)C)C(=O)N[C@H]1C(=O)N[C@@H](CC(N)=O)C(=O)N[C@H]2C(=O)N[C@H]3C(=O)N[C@H](C(=O)N[C@H](C(=O)O)c4cc(O)cc(O)c4-c4cc3ccc4O)[C@H](O)c3ccc(c(Cl)c3)Oc3cc2cc(c3O[C@@H]2O[C@H](CO)[C@@H](O)[C@H](O)[C@H]2O[C@H]2C[C@](C)(N)[C@H](O)[C@H](C)O2)Oc2ccc(cc2Cl)[C@H]1O", "note": "[vancomycin]", "values": [{"measurement": "cells resistant or sensitive", "setting": "[3]", "result": "resistant"}, {"measurement": "signal change upon exposure", "setting": "[3]; 10 μg/mL, 25 μg/mL, 50 μg/mL, or 100 μg/mL", "result": "signals increased"}]}
{"smiles": "CC1(C)S[C@@H]2[C@H](NC(=O)[C@H](N)c3ccccc3)C(=O)N2[C@H]1C(=O)O", "note": "[ampicillin]", "values": [{"measurement": "cells resistant or sensitive", "setting": "[3]", "result": "sensitive"}, {"measurement": "signal reduction as compared to controls", "setting": "[3]; 10 μg/mL", "result": "about 100 fold"}, {"measurement": "signal reduction as compared to controls", "setting": "[3]; 25 μg/mL", "result": "~1400", "unit": "fold"}, {"measurement": "signal reduction as compared to controls", "setting": "[3]; 50 μg/mL", "result": "~2200", "unit": "fold"}]}
